Where two headings read alike, the source gives them in different places.
Experiments:
[1] = tested on: oxidation of lipids; experiment: Conjugated diene determination, rat serum; format: in vivo, male Sprague-Dawley rats; details: pooled rat serum, diet 0.3%, 4 days, mean of 2 determinations
Text: (§1) A typical experiment consisted of 4-6 groups of rats (N=5 per group) with 1 group being a control which received no MDL compound and the other groups being treated with 0.3% MDL compound. Some of the compounds were either repeated at 0.3% or evaluated again at the lower dose of 0.1%. Male Sprague-Dawley rats, 50-100 g, (Harlan Laboratories, Indianapolis, Ind.) were housed in groups of 5, fed ad libitum water and Purina Rodent chow (#5002) with or without MDL compound as a dietary admixture for 4 days. Dietary admixtures (0.3%) were made by mixing 1.2 grams of an MDL compound with 400 grams of Purina rodent chow (#5002). The MDL compound was mixed with approximately 50 grams of food using a mortar and pestle. This was added to the remainder of the food and mixed for 3 hours on a rotary mixer. In the morning of day 5, non-fasted rats were anesthetized with carbon dioxide, and blood was collected by cardiac puncture. Rats were sacrificed by cervical dislocation. Body weights and liver weights were recorded in grams. Food consumption was recorded as grams.cndot.day^-1.cndot.rat^-1. Deaths were recorded as mortality. Aliquots of fresh serum were used for clinical chemistries, thiobarbituric acid reactive substances (TBARS) and conjugated diene measurements. Aliquots of serum (~0.5mL) and whole livers were frozen at -20° C. for compound and metabolite concentration determination at a later time.
Conjugated diene lag phase is another indicator of the oxidation of lipids. Lipids exposed to Cu^++ form conjugated dienes that absorb ultraviolet light in the range of 230 to 235 nm. The lag phase of diene formation gives an indication of the amount of oxidation of the lipids. A lag phase longer than control samples indicate inhibition of the oxidation. Conjugated diene lay phase was determined using a Varian DMS200 spectrophotometer (fitted with a constant temperature, 5 cuvette sample changer) at 30° C. Twenty (20) μL of pooled serum were added to cuvettes containing 3.0 mL phosphate buffered saline, pH 7.5, and mixed. The absorbances of all cuvettes were measured, and the instrument baseline was set to zero using the lowest absorbing sample. Next, 100 μL of 1 mmol CuSO4 were added and immediately mixed. The absorbance of each cuvette was recorded at 2 min intervals for a period of 840 min. The data were captured and transferred to a Microsoft EXCEL® spreadsheet where the curves were smoothed and differentials obtained. Lag times were determined mathematically as minutes. Serum samples were pooled (N=5); data presented are the mean values of 2 determinations. Serum samples from treated rats were compared to serum samples from control rats that received no MDL compound.

[2] = Clinical chemistries in serum of rats; format: in vivo, male Sprague-Dawley rats; details: for response vs control in vivo at 0.3 %: Rattus norvegicus, po, 96 h; for ALP (alkaline phosphatase), percent of control / ALT (alanine aminotransferase), percent of control / AST (aspartate aminotransferase), percent of control / GLUC (glucose), percent of control: rat serum, diet 0.3%, 4 days
Text: as §1
Blood was allowed to clot at room temperature for 30 minutes. Serum was obtained after centrifugation for 10 min at 4° C. at 3000 rpm in a Beckman J-6M/E centrifuge with a JS-4.2 rotor. Fresh serum was analyzed by a COBAS MIRA S autoanalyzer (Roche Diagnostics) using Roche diagnostic reagents for the following clinical chemistry measurements: alkaline phosphatase (ALP, kit #44553), alanine transaminase (ALT, kit #42375), aspartate aminotransferase (AST, kit #42381), total cholesterol (CHOL, kit #44334), triglyceride (TG, kit #44120), and glucose (GLU, kit #44558). ALP, ALT, and AST were calculated as units/L. Cholesterol, triglycerides, and glucose were calculated as mg/dL.

[3] = Animal parameters (food, body weight, liver weight, mortality) in rats; format: in vivo, male Sprague-Dawley rats; details: diet 0.3%, 4 days; for mortality at 96 h: in vivo, po, read-out: mortality (deaths per group); for mortality at 96 h / body wt., percent of control / lw/bw (liver weight/body weight), percent of control: rat
Text: as §1

[4] = HPLC quantitation of compound and metabolite concentration in rat serum and liver; format: in vivo, male Sprague-Dawley rats; details: diet 0.3%, 4 days; for Liver Parent = parent compound concentration: rat liver; for Serum Parent = parent compound concentration: rat serum
Text: as §1
Serum and liver concentrations of parent compound and the metabolites, bisphenol and diphenoquinone, were determined by reverse phase HPLC using a Waters 990 Powerline system. Livers (1 gram samples) were homogenized with 5.0 mL PBS, pH 7.4, using a Polytron tissue homogenizer at setting 5 for 20-30 seconds. Serum or liver homogenates were extracted as follows: 100μL of either serum or homogenate were added to 2.0 mL diethyl ether:ethanol (3:1) while vortexing the tube. The sample tubes were capped and centrifuged for 10 min at 5° C. at 3500 rpm in a Beckman GPKR centrifuge with a GH 3.7 rotor. The supernatants were transferred to clean tubes and dried under N2. Samples were reconstituted with 200 μL of acetonitrile:hexane:0.1M ammonium acetate (90:6.5:3.5, by vol.). Then, 100 μL were injected onto a Waters Deltapak C18-300 Å column, and eluted with an 83% acetonitrile:17% water mobile phase at a flow rate of 1.5 mL/min. Absorbances at the wavelengths of 240, 254, and 420 nm were recorded. Compound concentrations were calculated from known quantities of authentic parent compounds after correction for recovery; the range of recovery from spiked samples was 40 to 100%. The lowest detectable limit for this class of compounds was ~0.5 μg/mL. […]. Concentrations were calculated as μg/mL of serum and μg/g of liver.

[5] = tested on: oxidation of serum lipids; experiment: TBARS assay, rat serum; format: in vivo, male Sprague-Dawley rats; details: Rattus norvegicus, po, 96 h, read-out: TBARS, percent of control
Text: as §1
In this assay the oxidation of serum lipids is initiated with CuSO4, resulting in the formation of aldehydes, such as malondialdehyde (MDA). Upon incubation with thiobarbituric acid, the absorbance of the aldehydes can be detected at 530-540 nm. As stated in the previous example, TBARS values which are lower than control serum values indicate the relative ability of a test compound to inhibit the oxidation of lipids in a sample. TBARS were measured as follows: 100 μL of serum were mixed with 400 μL of a 5 mmol CuSO4 solution and incubated at 37° C. for 3 hr. The reactions were stopped by addition of 1.0 mL of 20% trichloroacetic acid. Then 1.0 mL of 0.67% thiobarbituric acid in 0.05N sodium hydroxide was added, mixed, and the samples incubated for 30 min at 90° C. Samples were centrifuged briefly to pellet undissolved material, and the supernatants were transferred to a 96-well microtiter plate. Absorbances were measured at 540 nm using a Biotek model EL311 microplate reader. The nmoles of MDA produced were calculated from a standard curve of 0 to 10 nmoles of MDA prepared from malonaldehyde bis(dimethylacetal). Serum samples from treated rats were compared to serum samples from control rats that received no MDL compound.

[6] = tested on: VCAM-1; details: vascular endothelial cells; cited from earlier work
[7] = read-out: CHOL (total cholesterol), percent of control
[8] = read-out: TRIG (triglycerides), percent of control

CC(=O)Oc1c(C)cc(OC[Si](C)(C)c2ccccc2)c(C)c1C [MDL 103,157, 2,3,6-Trimethyl-4-[(dimethylphenylsilyl)methyloxy]phenol acetic acid ester]
CONJ. DIENE (conjugated diene lag phase) [1]: 50 min
response vs control in vivo at 0.3 % [2, 7]: 112%
response vs control in vivo at 0.3 % [2, 8]: 82%
ALP (alkaline phosphatase), percent of control [2]: 144%
ALT (alanine aminotransferase), percent of control [2]: 133%
AST (aspartate aminotransferase), percent of control [2]: 92%
GLUC (glucose), percent of control [2]: 100%
food (grams eaten per day per rat), percent of control [3]: 96%
mortality at 96 h [3]: 0%
body wt., percent of control [3]: 96%
lw/bw (liver weight/body weight), percent of control [3]: 120%
Liver Parent = parent compound concentration [4]: 0 µg/g
Serum Parent = parent compound concentration [4]: 0 µg/mL
response vs control in vivo at 0.3 % [5]: 94%

CC(C)(C)c1cc(OC[Si](C)(C)c2ccccc2)ccc1OC(=O)CCC(=O)O [MDL 104,399, 2-t-Butyl-4-[(dimethylphenylsilyl)methyloxy]phenol succinic acid ester]
CONJ. DIENE (conjugated diene lag phase) [1]: 395 min
response vs control in vivo at 0.3 % [2, 7]: 130%
response vs control in vivo at 0.3 % [2, 8]: 168%
ALP (alkaline phosphatase), percent of control [2]: 91%
ALT (alanine aminotransferase), percent of control [2]: 107%
AST (aspartate aminotransferase), percent of control [2]: 102%
GLUC (glucose), percent of control [2]: 88%
food (grams eaten per day per rat), percent of control [3]: 90%
mortality at 96 h [3]: 0%
body wt., percent of control [3]: 101%
lw/bw (liver weight/body weight), percent of control [3]: 118%
Liver Parent = parent compound concentration [4]: 0 µg/g
Serum Parent = parent compound concentration [4]: 0 µg/mL
response vs control in vivo at 0.3 % [5]: 41%

CC(=O)Oc1cc(C(C)(C)C)c(OC[Si](C)(C)c2ccccc2)cc1C(C)(C)C [MDL 106,290, 2,5-Di-t-butyl-4-[(dimethylphenylsilyl)methyloxy]phenol acetic acid ester]
CONJ. DIENE (conjugated diene lag phase) [1]: 372 min
response vs control in vivo at 0.3 % [2, 7]: 153%
response vs control in vivo at 0.3 % [2, 8]: 75%
ALP (alkaline phosphatase), percent of control [2]: 118%
ALT (alanine aminotransferase), percent of control [2]: 89%
AST (aspartate aminotransferase), percent of control [2]: 84%
GLUC (glucose), percent of control [2]: 109%
food (grams eaten per day per rat), percent of control [3]: 108%
mortality at 96 h [3]: 0%
body wt., percent of control [3]: 95%
lw/bw (liver weight/body weight), percent of control [3]: 104%
response vs control in vivo at 0.3 % [5]: 17%

CC(=O)N[C@@H](CS)C(=O)O [N-acetylcysteine]
inhibition of cytokine-induced expression of VCAM-1 [6]: inhibit cytokine-induced expression of VCAM-1

S=C(S)N1CCCC1 [pyrollidine dithiocarbamate]
inhibition of cytokine-induced expression of VCAM-1 [6]: inhibit cytokine-induced expression of VCAM-1

Reference: patent US5608095A, “Alkyl-4-silyl-phenols and esters thereof as antiatherosclerotic agents” (Hoechst Marion Roussel, Inc., priority 1996, dated 1997)
